Each block holds one molecule with its values, some of them ahead of it.
Assays:
SIRT2 [1] = target: T1, SIRT2 (Homo sapiens, UniProt Q8IXJ6); test: biochemical; assay type: biochemical; conditions: for %inhibition SIRT2, QPKKac: 100 µM inhibitor, QPKKac 50 µM, NI = no inhibition
T1 sequence (Q8IXJ6 50-356): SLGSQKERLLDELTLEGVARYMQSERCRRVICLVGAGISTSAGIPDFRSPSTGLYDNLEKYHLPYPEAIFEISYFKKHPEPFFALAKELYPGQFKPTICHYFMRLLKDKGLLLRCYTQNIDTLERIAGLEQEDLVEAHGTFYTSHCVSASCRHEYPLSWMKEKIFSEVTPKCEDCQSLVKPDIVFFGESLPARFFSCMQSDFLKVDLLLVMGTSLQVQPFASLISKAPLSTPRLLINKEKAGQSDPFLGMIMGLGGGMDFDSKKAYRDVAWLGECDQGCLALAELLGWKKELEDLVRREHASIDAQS

SIRT6 = SIRT6 (Homo sapiens, UniProt Q8N6T7); test: End-point SIRT6 inhibition assay; assay type: biochemical; conditions: 10 µM inhibitor; SIRT6 600 nM; ETDKmyr 50 µM as substrate; NI = no inhibition
Chain of SIRT6 (Q8N6T7 whole entry): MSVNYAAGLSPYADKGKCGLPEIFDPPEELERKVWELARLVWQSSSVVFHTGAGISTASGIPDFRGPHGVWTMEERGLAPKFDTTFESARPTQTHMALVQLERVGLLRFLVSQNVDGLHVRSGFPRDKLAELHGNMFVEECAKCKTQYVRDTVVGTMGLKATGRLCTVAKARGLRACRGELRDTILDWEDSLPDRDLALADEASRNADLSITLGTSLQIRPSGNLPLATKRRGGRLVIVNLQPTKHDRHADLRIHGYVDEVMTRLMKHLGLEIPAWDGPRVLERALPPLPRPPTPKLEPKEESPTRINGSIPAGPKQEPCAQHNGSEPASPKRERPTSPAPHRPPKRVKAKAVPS

SIRT1 = target: T2, SIRT1 (Homo sapiens, UniProt Q96EB6); test: End-point SIRT1 deacetylation inhibition assay; assay type: biochemical
T2 sequence (Q96EB6 193-741): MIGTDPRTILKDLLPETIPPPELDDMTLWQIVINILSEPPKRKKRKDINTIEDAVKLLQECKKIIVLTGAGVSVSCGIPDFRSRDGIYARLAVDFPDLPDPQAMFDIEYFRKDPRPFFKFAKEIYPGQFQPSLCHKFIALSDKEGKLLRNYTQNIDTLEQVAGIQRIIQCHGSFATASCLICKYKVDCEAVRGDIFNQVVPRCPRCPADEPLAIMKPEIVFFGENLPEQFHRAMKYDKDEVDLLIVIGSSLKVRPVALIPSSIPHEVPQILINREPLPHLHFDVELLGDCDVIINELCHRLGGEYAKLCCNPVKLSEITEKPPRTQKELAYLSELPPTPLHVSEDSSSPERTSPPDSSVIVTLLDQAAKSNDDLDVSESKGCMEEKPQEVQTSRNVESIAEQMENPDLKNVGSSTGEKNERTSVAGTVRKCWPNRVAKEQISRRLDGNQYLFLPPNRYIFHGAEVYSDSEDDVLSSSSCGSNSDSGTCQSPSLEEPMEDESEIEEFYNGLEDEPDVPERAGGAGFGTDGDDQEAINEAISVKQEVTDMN

[2] = Serum stability in human male serum; assay type: in vitro ADME; conditions: 37 °C, up to 24 h
SIRT3 = target: T3, SIRT3 (Homo sapiens, UniProt Q9NTG7); test: biochemical; assay type: biochemical
T3 sequence (Q9NTG7 102-399): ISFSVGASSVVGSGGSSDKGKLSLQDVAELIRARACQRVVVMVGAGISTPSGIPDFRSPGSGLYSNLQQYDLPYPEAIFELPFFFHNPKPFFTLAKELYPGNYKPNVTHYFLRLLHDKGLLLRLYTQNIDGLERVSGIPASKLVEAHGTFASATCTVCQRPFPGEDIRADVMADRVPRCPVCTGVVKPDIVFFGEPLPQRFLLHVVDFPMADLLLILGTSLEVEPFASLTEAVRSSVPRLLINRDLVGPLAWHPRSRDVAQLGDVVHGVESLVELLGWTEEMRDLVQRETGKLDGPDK

SIRT2 [3] = target: T1, SIRT2; test: Continuous trypsin-coupled SIRT2 inhibition assay; assay type: biochemical; conditions: from dependence of kobs on inhibitor concentration
[4] = tested on: acetylated α-tubulin in MCF-7 cells; test: Immunofluorescence of acetylated α-tubulin in MCF-7 cells; assay type: cell-based, human; conditions: MCF-7, 6 h; 26 5 μM, 26-D 25 μM, TSA 5 μM

%inhibition SIRT2, QPKKac (SIRT2 [1]): only limited inhibition
Compound: CCCCCCCCCCCCCC(=O)NNCCC[C@H](NC(=O)OCc1ccccc1)C(=O)N[C@@H](Cc1c[nH]c2ccccc12)C(=O)NC(C)C [Compound 4]

%inhibition SIRT2, QPKKac (SIRT2 [1]): only limited inhibition
Compound: CCCCCCCCCCCCNC(=O)CCCCC[C@H](NC(=O)OCc1ccccc1)C(=O)N[C@@H](Cc1c[nH]c2ccccc12)C(=O)NC(C)C [Compound 5]

IC50 (SIRT2 [1]; IC50 SIRT2, QPKKac, given as class word, QPKKac 50 μM, NAD+ 500 μM, SIRT2 100 nM): < 0.1 µM
%-inhibition SIRT6 (SIRT6): did not inhibit
IC50 (SIRT1): 0.37 ± 0.07 µM
IC50 (SIRT3): 1.9 ± 0.3 µM
mechanism of slow-binding inhibition (SIRT2 [3]): mechanism B
Compound: CCCCCCCCCCCCNC(=S)NCCCC[C@H](NS(C)(=O)=O)C(=O)N[C@@H](C)C(=O)N[C@@H](CCCNC(=N)N)C(N)=O [Compound 25]
degradation in human serum (in words) [2]: almost fully degraded in less than two hours

Compound: CC(/C=C/C(=O)NO)=C\[C@@H](C)C(=O)c1ccc(N(C)C)cc1 [TSA, Trichostatin A]
acetylated α-tubulin level by immunofluorescence (in words) [4]: hyperacetylation of α-tubulin throughout the entire cell

degradation in human serum (in words) [2]: rapidly degraded
%inhibition SIRT3, QPKKac (SIRT3; 100 µM inhibitor, QPKKac 50 µM, NI = no inhibition): <50% [100 μM]
Compound: CN(C)CCCCC(=O)Nc1ccc(NC(=S)NC(=O)c2ccc(C(C)(C)C)cc2)cc1 [Tenovin-6, reference compound]

Source: paper PMC8341974 (RSC Chemical Biology, 2021)
